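How tested: cells in 96-well plates exposed to compound for 48 hours at five concentrations. GI50: concentration for 50% inhibition of growth.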 The source made the active and inactive calls. Rule as the data show it: active = GI50 up to about 1.1 µM and inactive = higher.
Columns and labels:
Experiment in all cases: DTP human tumour cell line panel, 48 h
PC-3 = test system: PC-3
MDA-N = test system: MDA-N
SK-MEL-2 = test system: SK-MEL-2
UACC-257 = test system: UACC-257
Malme-3M = test system: Malme-3M
NCI-H460 = test system: NCI-H460
EKVX = test system: EKVX
HL-60 = test system: HL-60
SNB-75 = test system: SNB-75
MCF7 = test system: MCF7
DU-145 = test system: DU-145
BT-549 = test system: BT-549
NCI-H23 = test system: NCI-H23
HOP-92 = test system: HOP-92
M14 = test system: M14
LOX IMVI = test system: LOX IMVI
HCC 2998 = test system: HCC 2998
MDA-MB-231 = test system: MDA-MB-231
COLO 205 = test system: COLO 205
OVCAR-5 = test system: OVCAR-5
K562 = test system: K562
Hs-578T = test system: Hs-578T
SF-268 = test system: SF-268
RPMI-8226 = test system: RPMI-8226
SK-MEL-28 = test system: SK-MEL-28
SW-620 = test system: SW-620
MDA-MB-435 = test system: MDA-MB-435
CAKI-1 = test system: CAKI-1
U-251 = test system: U-251
786-0 = test system: 786-0
NCI/ADR-RES = test system: NCI/ADR-RES
TK-10 = test system: TK-10
ACHN = test system: ACHN
CCRF-CEM = test system: CCRF-CEM
SF-295 = test system: SF-295
NCI-H226 = test system: NCI-H226
OVCAR-8 = test system: OVCAR-8
UACC-62 = test system: UACC-62
OVCAR-4 = test system: OVCAR-4
HCT-15 = test system: HCT-15
SNB-19 = test system: SNB-19
HT-29 = test system: HT-29
SN12C = test system: SN12C
RXF 393 = test system: RXF 393
MOLT-4 = test system: MOLT-4
HOP-62 = test system: HOP-62
OVCAR-3 = test system: OVCAR-3
A549 = test system: A549
SK-OV-3 = test system: SK-OV-3
KM12 = test system: KM12
UO-31 = test system: UO-31
SK-MEL-5 = test system: SK-MEL-5
HCT-116 = test system: HCT-116
SF-539 = test system: SF-539
A498 = test system: A498
IGROV-1 = test system: IGROV-1
SR = test system: SR
NCI-H522 = test system: NCI-H522

CCOC(=O)Cc1nc2cc(F)c(F)cc2[nH]c1=O
GI50 (PC-3): > 100 µM (inactive)
GI50 (MDA-N): > 100 µM (inactive)
GI50 (SK-MEL-2): > 100 µM (inactive)
GI50 (UACC-257): > 100 µM (inactive)
GI50 (Malme-3M): > 100 µM (inactive)
GI50 (NCI-H460): > 100 µM (inactive)
GI50 (EKVX): > 100 µM (inactive)
GI50 (HL-60): > 100 µM (inactive)
GI50 (SNB-75): > 100 µM (inactive)
GI50 (MCF7): > 100 µM (inactive)
GI50 (DU-145): > 100 µM (inactive)
GI50 (BT-549): > 100 µM (inactive)
GI50 (NCI-H23): > 100 µM (inactive)
GI50 (HOP-92): > 100 µM (inactive)
GI50 (M14): > 100 µM (inactive)
GI50 (LOX IMVI): > 100 µM (inactive)
GI50 (HCC 2998): > 100 µM (inactive)
GI50 (MDA-MB-231): > 100 µM (inactive)
GI50 (COLO 205): > 100 µM (inactive)
GI50 (OVCAR-5): > 100 µM (inactive)
GI50 (K562): > 100 µM (inactive)
GI50 (Hs-578T): > 100 µM (inactive)
GI50 (SF-268): > 100 µM (inactive)
GI50 (RPMI-8226): > 100 µM (inactive)
GI50 (SK-MEL-28): > 100 µM (inactive)
GI50 (SW-620): > 100 µM (inactive)
GI50 (MDA-MB-435): > 100 µM (inactive)
GI50 (CAKI-1): > 100 µM (inactive)
GI50 (U-251): > 100 µM (inactive)
GI50 (786-0): > 100 µM (inactive)
GI50 (NCI/ADR-RES): > 100 µM (inactive)
GI50 (TK-10): > 100 µM (inactive)
GI50 (ACHN): > 100 µM (inactive)
GI50 (CCRF-CEM): > 100 µM (inactive)
GI50 (SF-295): > 100 µM (inactive)
GI50 (NCI-H226): > 100 µM (inactive)
GI50 (OVCAR-8): > 100 µM (inactive)
GI50 (UACC-62): > 100 µM (inactive)
GI50 (OVCAR-4): > 100 µM (inactive)
GI50 (HCT-15): > 100 µM
GI50 (SNB-19): > 100 µM (inactive)
GI50 (HT-29): > 100 µM (inactive)
GI50 (SN12C): > 100 µM (inactive)
GI50 (RXF 393): > 100 µM (inactive)
GI50 (MOLT-4): > 100 µM (inactive)
GI50 (HOP-62): > 100 µM (inactive)
GI50 (OVCAR-3): > 100 µM (inactive)
GI50 (A549): > 100 µM (inactive)
GI50 (SK-OV-3): > 100 µM (inactive)
GI50 (KM12): > 100 µM (inactive)
GI50 (UO-31): > 100 µM (inactive)
GI50 (SK-MEL-5): > 100 µM (inactive)
GI50 (HCT-116): > 100 µM (inactive)
GI50 (SF-539): > 100 µM (inactive)

C=C(C)[C@@H]1CC[C@@H](C)[C@](O)([C@@H]2C[C@@H]([C@H](COC(=O)c3ccccc3)OC(=O)c3ccccc3)OC2=O)C1
GI50 (PC-3): 46.1 µM (inactive)
GI50 (MDA-N): > 100 µM (inactive)
GI50 (SK-MEL-2): > 100 µM (inactive)
GI50 (UACC-257): > 100 µM (inactive)
GI50 (Malme-3M): > 100 µM (inactive)
GI50 (NCI-H460): 39.1 µM (inactive)
GI50 (EKVX): > 100 µM (inactive)
GI50 (SNB-75): > 100 µM (inactive)
GI50 (MCF7): > 100 µM (inactive)
GI50 (DU-145): > 100 µM (inactive)
GI50 (A498): > 100 µM (inactive)
GI50 (BT-549): > 100 µM (inactive)
GI50 (NCI-H23): > 100 µM (inactive)
GI50 (M14): > 100 µM (inactive)
GI50 (LOX IMVI): > 100 µM (inactive)
GI50 (HCC 2998): > 100 µM (inactive)
GI50 (MDA-MB-231): > 100 µM (inactive)
GI50 (COLO 205): > 100 µM (inactive)
GI50 (OVCAR-5): > 100 µM (inactive)
GI50 (K562): > 100 µM (inactive)
GI50 (SF-268): > 100 µM (inactive)
GI50 (IGROV-1): > 100 µM (inactive)
GI50 (RPMI-8226): 54 µM (inactive)
GI50 (SK-MEL-28): > 100 µM (inactive)
GI50 (SW-620): > 100 µM (inactive)
GI50 (MDA-MB-435): > 100 µM (inactive)
GI50 (CAKI-1): > 100 µM (inactive)
GI50 (U-251): > 100 µM (inactive)
GI50 (786-0): > 100 µM (inactive)
GI50 (NCI/ADR-RES): > 100 µM (inactive)
GI50 (SR): 24.9 µM (inactive)
GI50 (TK-10): > 100 µM (inactive)
GI50 (ACHN): > 100 µM (inactive)
GI50 (CCRF-CEM): > 100 µM (inactive)
GI50 (SF-295): > 100 µM (inactive)
GI50 (NCI-H226): > 100 µM (inactive)
GI50 (OVCAR-8): > 100 µM (inactive)
GI50 (UACC-62): > 100 µM (inactive)
GI50 (OVCAR-4): 59.4 µM (inactive)
GI50 (HCT-15): > 100 µM
GI50 (SNB-19): > 100 µM (inactive)
GI50 (HT-29): > 100 µM (inactive)
GI50 (SN12C): > 100 µM (inactive)
GI50 (RXF 393): > 100 µM (inactive)
GI50 (MOLT-4): 28 µM (inactive)
GI50 (HOP-62): > 100 µM (inactive)
GI50 (OVCAR-3): > 100 µM (inactive)
GI50 (A549): > 100 µM (inactive)
GI50 (SK-OV-3): > 100 µM (inactive)
GI50 (KM12): > 100 µM (inactive)
GI50 (UO-31): 29 µM (inactive)
GI50 (SK-MEL-5): > 100 µM (inactive)
GI50 (NCI-H522): > 100 µM (inactive)
GI50 (HCT-116): > 100 µM (inactive)
GI50 (SF-539): > 100 µM (inactive)

From ChEMBL document CHEMBL1201862, “PubChem BioAssay data set” (2004)
